[5mC] = 5-methylcytosine
Columns and labels:
[1] = test system: murine DNA 5-C-MTase; test: Methylation assay: methyl transfer from [methyl-3H]AdoMet to ODNs by DNA methyltransferase from Friend erythroleukemia cell nuclei; type: biochemical; conditions: for ACTIVITY (cpm), DNA methylase (FL): Table 5, S + M1 and its 5-fluorocytosine containing double stranded analogs; for DNA METHYLASE (FL) SUBSTRATE ACTIVITY, ACTIVITY (CPM): Table 4, single and double stranded constructs, average of 2 expts, background 1813; for RELATIVE ACTIVITY (rate of methylation relative to an equal amount of AS): Table 6, single-stranded ODN; for rate of methylation relative to unmethylated A (times): ODNs with 5MeC in position 7 designed to form or not to form the stem-loop
Method: The phosphoramidite of 5-fluorodeoxycytidine (5FdC) and unmodified 5-methyl deoxycytosine (5MdC) and 5FC-containing ODNs were synthesized and purified as described in Marasco, C. J. et al., J. Org. […] 5MdC phosphoramidite is commercially available. ss ODNs were heated to 90° C. for 10 min and quickly chilled on ice immediately prior to assay. […] For ds ODNs, an equimolar mixture of complementary ODNs was heated to 90° C. for 10 min and slowly cooled to room temperature.
Preparation of Murine DNA 5-C-MTase. The DNA 5-C-MTase used in these studies was the 100,000×g supernatant of a 0.3M NaCl extract of Friend erythroleukemia cell nuclei.
Methylation Assay. Reaction mixtures (50 μl ) in 0.1M imidazole, pH 7.4/20 mM EDTA/0.5 mM dithiothreitol contained 0.5 μg of each ODN indicated, ≈0.6 units of DNA 5-C-MTase (1 unit transfers 1 pmol to A (AS)·A'Mp (M1) per min; see Table 7), and 2.8 μCi (1 Ci=37 GBq) of [methyl-^3 H]AdoMet (AdoMet=S-adenosylmethionine) (8 μM). […] For accuracy, methylation rates <5 pmol/30 min were measured in quadrupled reaction mixtures (200 μl ). After incubation for 30 min at 37° C., ODNs were processed for quantitation of radiolabel as described (20) with 25 μg of salmon sperm DNA added as carrier prior to perchloric acid precipitation.
All assays were performed in duplicate.

[2] = test system: bacterial SssI methyltransferase; test: DNA methylase substrate activity with bacterial SssI enzyme preparation; type: biochemical; conditions: Table 3; bacterial SssI enzyme preparation; 0.25 μg oligomer; average of 2 expts; background 1351
From the text: They are labeled Sense (S), Antisense (AS), Methylated Antisense 1 (M1) and Methylated Antisense 2 (M2). […] This property of M2 provides an approach to accurately monitoring levels of DNA methyltransferase activity in clinically obtained tissue samples that might otherwise be contaminated by bacteria, since bacterial DNA methyltransferase activity would be excluded as a component of this measurement.
RESULTS ARE AVERAGE OF 2 EXPTS. BACTERIAL SSS1 ENZYME PREPARATION. ASSAYE

[3] = test system: murine DNA 5-C-MTase; test: Methylation assay: methyl transfer from [methyl-3H]AdoMet to ODNs by DNA methyltransferase from Friend erythroleukemia cell nuclei; type: biochemical; conditions: Table 2; enzyme preparation from Friend leukemia cells; 1 μg oligomer; average of 2 expts; background 2691
[4] = biological target: T1, DNA 5-C-methyltransferase (murine, Friend erythroleukemia cells) (Mus musculus, UniProt P13864 P13864:1-1620); test: methylation rate; conditions: protein: extract; tags: 0.3 M NaCl nuclear extract, 100,000 x g supernatant; single approx. 190 kDa species forming covalent complexes
[5] = biological target: T1, DNA 5-C-methyltransferase (murine, …); test: inhibition; methylation rate; 5FC in substrate site inactivates enzyme; conditions: protein: extract; tags: 0.3 M NaCl nuclear extract, 100,000 x g supernatant; single approx. 190 kDa species forming covalent complexes
Method: (§1) Methylation Assay. Reaction mixtures (50 µl) in 0.1M imidazole, pH 7.4/20 mM EDTA/0.5 mM dithiothreitol contained 0.5 µg of each ODN indicated, ≈0.6 units of DNA 5-C-MTase (1 unit transfers 1 pmol to A (AS)·A'M_p (M1) per min; see Table 7), and 2.8 µCi (1 Ci=37 GBq) of [methyl-^3H]AdoMet (AdoMet=S-adenosylmethionine) (8 µM). Substrate C sites are in excess in the reaction, and methyl transfer is linear for >45 min. For accuracy, methylation rates <5 pmol/30 min were measured in quadrupled reaction mixtures (200 µl). After incubation for 30 min at 37° C., ODNs were processed for quantitation of radiolabel as described (20) with 25 µg of salmon sperm DNA added as carrier prior to perchloric acid precipitation.
(§2) Substitution of C residues with 5FC was used to determine which sites become substrates for enzymatic methylation in A strands containing 5MeC. It has been shown that both bacterial and mammalian DNA 5-C-MTases form stable covalent linkages with 5FC residues in DNA during the process of methylation. Under conditions of substrate excess, this leads to rapid inactivation of the enzymes. […] Thus, 5MeC in position 5 or 7 activates DNA 5-C-MTase to methylate C18 while failing to activate methylation of a C residue only two bases downstream.

[6] = biological target: T1, DNA 5-C-methyltransferase (murine, …); test: methylation rate; conditions: protein: extract; tags: 0.3 M NaCl nuclear extract, 100,000 x g supernatant; single approx. 190 kDa species forming covalent complexes; remark: listed apart in the source
Method: as §1, §2

[7] = biological target: T2, Hha I DNA methyltransferase (UniProt P05102 P05102:1-327); test: ss ODNs not substrates at 37 C
T2 sequence: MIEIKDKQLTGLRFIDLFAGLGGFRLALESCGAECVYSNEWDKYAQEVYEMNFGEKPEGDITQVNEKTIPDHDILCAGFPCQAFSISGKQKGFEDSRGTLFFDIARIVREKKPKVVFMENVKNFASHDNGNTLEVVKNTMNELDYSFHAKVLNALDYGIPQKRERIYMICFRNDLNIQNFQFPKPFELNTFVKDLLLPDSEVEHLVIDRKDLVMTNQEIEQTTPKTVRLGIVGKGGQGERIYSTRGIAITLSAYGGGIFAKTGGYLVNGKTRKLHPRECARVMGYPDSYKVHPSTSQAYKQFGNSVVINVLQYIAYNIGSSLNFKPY

[8] = Table 10, ss ODNs with 5 mC and 5 FC substitutions

T1 sequence (P13864 whole entry, one chain of several): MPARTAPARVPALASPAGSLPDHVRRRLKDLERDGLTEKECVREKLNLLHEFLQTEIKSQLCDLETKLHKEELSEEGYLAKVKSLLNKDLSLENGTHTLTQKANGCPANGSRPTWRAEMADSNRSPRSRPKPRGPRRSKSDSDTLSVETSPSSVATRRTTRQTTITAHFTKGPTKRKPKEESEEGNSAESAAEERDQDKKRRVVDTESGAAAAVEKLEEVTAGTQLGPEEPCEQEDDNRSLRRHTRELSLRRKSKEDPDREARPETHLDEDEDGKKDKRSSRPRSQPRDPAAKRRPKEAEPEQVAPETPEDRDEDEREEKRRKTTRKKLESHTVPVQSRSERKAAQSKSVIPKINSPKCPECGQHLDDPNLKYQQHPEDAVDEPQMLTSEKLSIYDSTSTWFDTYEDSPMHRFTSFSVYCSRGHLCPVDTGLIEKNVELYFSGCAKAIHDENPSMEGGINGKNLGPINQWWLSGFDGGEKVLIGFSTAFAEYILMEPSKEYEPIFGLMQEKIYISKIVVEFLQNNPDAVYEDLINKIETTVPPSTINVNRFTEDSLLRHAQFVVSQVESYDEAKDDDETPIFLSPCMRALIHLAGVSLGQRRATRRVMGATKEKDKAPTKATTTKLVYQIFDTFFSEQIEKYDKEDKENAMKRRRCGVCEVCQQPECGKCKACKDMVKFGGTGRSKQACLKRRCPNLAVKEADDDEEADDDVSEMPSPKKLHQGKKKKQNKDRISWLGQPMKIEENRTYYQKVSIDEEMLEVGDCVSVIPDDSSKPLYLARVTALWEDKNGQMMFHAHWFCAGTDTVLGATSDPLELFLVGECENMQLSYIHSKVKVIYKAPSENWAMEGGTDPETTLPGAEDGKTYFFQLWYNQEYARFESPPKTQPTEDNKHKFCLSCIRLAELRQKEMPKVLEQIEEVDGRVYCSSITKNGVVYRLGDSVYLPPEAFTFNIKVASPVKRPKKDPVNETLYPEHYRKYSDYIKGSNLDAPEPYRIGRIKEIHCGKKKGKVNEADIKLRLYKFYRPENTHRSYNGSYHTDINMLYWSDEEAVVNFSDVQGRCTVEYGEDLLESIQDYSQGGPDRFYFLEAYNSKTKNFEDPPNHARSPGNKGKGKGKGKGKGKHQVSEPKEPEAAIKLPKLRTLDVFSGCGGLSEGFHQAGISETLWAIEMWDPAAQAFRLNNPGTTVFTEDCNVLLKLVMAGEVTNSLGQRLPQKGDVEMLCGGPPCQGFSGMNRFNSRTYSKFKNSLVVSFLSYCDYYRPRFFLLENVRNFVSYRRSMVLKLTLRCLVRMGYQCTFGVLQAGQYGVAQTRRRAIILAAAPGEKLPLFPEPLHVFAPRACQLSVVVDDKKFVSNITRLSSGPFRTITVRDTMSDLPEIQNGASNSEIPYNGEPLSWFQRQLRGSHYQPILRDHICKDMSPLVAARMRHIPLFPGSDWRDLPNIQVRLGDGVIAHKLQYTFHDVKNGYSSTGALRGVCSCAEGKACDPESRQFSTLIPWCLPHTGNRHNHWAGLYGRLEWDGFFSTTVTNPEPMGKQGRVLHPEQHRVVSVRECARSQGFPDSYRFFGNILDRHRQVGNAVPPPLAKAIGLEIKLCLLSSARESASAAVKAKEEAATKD

5' GATCGCGGATCNGGAATGCGCAAT 3' (5-fluorocytosine, further chemistry not given here) [Seq. ID #13]
ACTIVITY (cpm), DNA methylase (FL) [1]: 28,000 cpm

3' TAACGCGTAAGGCCTAGGCGCTAG 5' (chemistry not given here; listed 3' to 5') [unmethylated sense single-stranded 24mer ODN]
DNA METHYLASE (FL) SUBSTRATE ACTIVITY, ACTIVITY (CPM) [1]: 1598 CPM
DNA METHYLASE SUBSTRATE ACTIVITY, ACTIVITY (CPM) [2]: 175225 CPM
DNA METHYLASE SUBSTRATE ACTIVITY, ACTIVITY (CPM) [3]: 4843 CPM

5' GATCGCGGATNCGGAATGCGCAAT 3' (5-fluorocytosine, further chemistry not given here) [Seq. ID #12]
ACTIVITY (cpm), DNA methylase (FL) [1]: 140,000 cpm

5' ATTGCGNATTCCGGATCRGCGATC 3' (5-methylcytosine at 7, 5-fluorocytosine at 18, further chemistry not given here) [ASM7 F18, AS with 5-methylcytosine (N) at 7 and 5-fluorocytosine (R) at 18]
inhibition of DNA methyltransferase (in words) [1]: potent
RELATIVE ACTIVITY (rate of methylation relative to an equal amount of AS) [1]: 3
RATE (rate of methylation relative to A) [1, 8]: 3.2

5' ATTGNGCATTCNGGATCNGNGATC 3' (5-methylcytosine at 5, 12, 18, 20, further chemistry not given here) [M1, AS with 5-methylcytosine (N) at 5, 12, 18, 20 (all CpG sites)]
DNA METHYLASE (FL) SUBSTRATE ACTIVITY, ACTIVITY (CPM) [1]: 1373 CPM
DNA METHYLASE SUBSTRATE ACTIVITY, ACTIVITY (CPM) [2]: 2339 CPM
DNA METHYLASE SUBSTRATE ACTIVITY, ACTIVITY (CPM) [3]: 5487 CPM

structure 8: ODN with 5MeC in position 7 that forms a homodimer but no stem-loop analogous to structures 5 and 6 (FIG. 9) (DNA ATTGCGCTACTCGGATCCGGCCAT; DNA, [5mC] at 7, backbone not given here)
rate of methylation relative to unmethylated A (times) [1]: same rate as unmethylated A

5' ATTGCGNATTCCGGATCCGCGATC 3' (5-methylcytosine at 7, further chemistry not given here) [ASM7, ODN A (AS) with 5-methylcytosine (N) at position 7]
RELATIVE ACTIVITY (rate of methylation relative to an equal amount of AS) [1]: 170
Rate of methylation ([1]; Table 7, phosphorothioate end capped oligomers, standard cell free enzyme assay): 72,010 cpm/μg oligo/30 min
RATE (rate of methylation relative to A) ([1]; Table 9, ss ODNs with 5MeC substituted for C at the sites given): 140
RATE (rate of methylation relative to A) [1, 8]: 130
stimulation of the rate of methylation by phosphorothioate capping ([1]; activity of D compared with C): more than 50%

5' ATTGCGCATTCCGGATCCGCGATC 3' (chemistry not given here) [AS, unmethylated antisense single-stranded 24mer ODN]
DNA METHYLASE (FL) SUBSTRATE ACTIVITY, ACTIVITY (CPM) [1]: 1936 CPM
RELATIVE ACTIVITY (rate of methylation relative to an equal amount of AS) [1]: 1
RATE (rate of methylation relative to A) [1, 8]: 1
DNA METHYLASE SUBSTRATE ACTIVITY, ACTIVITY (CPM) [2]: 49282 CPM
DNA METHYLASE SUBSTRATE ACTIVITY, ACTIVITY (CPM) [3]: 12341 CPM

structure 6: ODN with 5MeC in position 7 that forms a stem-loop with the same relationship between C7 and C18 as A (FIG. 7, 8) (DNA ATGACGCACCTCGTTGACGCGCTA; DNA, [5mC] at 7, backbone not given here)
rate of methylation relative to unmethylated A (times) [1]: > 300

5' GATCGCGGATCCGGAATGNGCAAT 3' (5-fluorocytosine, further chemistry not given here) [Seq. ID #14]
ACTIVITY (cpm), DNA methylase (FL) [1]: 36,000 cpm

B1: A' 5mC6,19 (ssDNA)
DNA: GATCGCGGATCCGGAATGCGCAAT
modifications: 5mC at 6,19
binding signal [4]: 1 relative to A

B2: M4 (SMx) (ssDNA)
DNA: GATCGCGGATCCGGAATGCGCAAT
modifications: 5mC at 11,21
binding signal [4]: 75 relative to A

B3: ASM5 F18 (ssDNA)
DNA: ATTGCGCATTCCGGATCCGCGATC
modifications: 5mC at 5; 5-fluoro-C at 18
binding signal [5]: 1 relative to A

B4: AMx F18 (ssDNA)
DNA: ATTGCGCATTCCGGATCCGCGATC
modifications: 5mC at 7,11,17; 5-fluoro-C at 18 [5mC at 7,11,17; 5-fluoro-C at 18]
binding signal [5]: 2 relative to A

B5: ASM7 F20 (ssDNA)
DNA: ATTGCGCATTCCGGATCCGCGATC
modifications: 5mC at 7; 5-fluoro-C at 20 [5mC at 7; 5-fluoro-C at 20]
binding signal [6]: 160 relative to A

B6: ASM18 (ssDNA)
DNA: ATTGCGCATTCCGGATCCGCGATC
modifications: 5mC at 18
binding signal [4]: 12 relative to A

B7: A' 5mC11 (ssDNA)
DNA: GATCGCGGATCCGGAATGCGCAAT
modifications: 5mC at 11
binding signal [4]: 1.7 relative to A

B8: ASM20 (ssDNA)
DNA: ATTGCGCATTCCGGATCCGCGATC
modifications: 5mC at 20
binding signal [4]: 2.5 relative to A

B9: ASM5 F20 (ssDNA)
DNA: ATTGCGCATTCCGGATCCGCGATC
modifications: 5mC at 5; 5-fluoro-C at 20
binding signal [6]: 152 relative to A

B10: A' 5mC4 (ssDNA)
DNA: GATCGCGGATCCGGAATGCGCAAT
modifications: 5mC at 4
binding signal [4]: 0.4 relative to A

B11: AMx F5 (ssDNA)
DNA: ATTGCGCATTCCGGATCCGCGATC
modifications: 5mC at 7,11,17; 5-fluoro-C at 5 [5mC at 7,11,17; 5-fluoro-C at 5]
binding signal [6]: 170 relative to A

B12: AS (A) (ssDNA)
DNA: ATTGCGCATTCCGGATCCGCGATC
binding result [7]: no binding

B13: A' 5mC21 (ssDNA)
DNA: GATCGCGGATCCGGAATGCGCAAT
modifications: 5mC at 21
binding signal [4]: 37 relative to A

B14: A' 5mC6 (ssDNA)
DNA: GATCGCGGATCCGGAATGCGCAAT
modifications: 5mC at 6
binding signal [4]: 42 relative to A

B15: ASM17 (ssDNA)
DNA: ATTGCGCATTCCGGATCCGCGATC
modifications: 5mC at 17
binding signal [4]: 3.5 relative to A

B16: A' 5mC19 (ssDNA)
DNA: GATCGCGGATCCGGAATGCGCAAT
modifications: 5mC at 19
binding signal [4]: 1 relative to A

B17: AMx F20 (ssDNA)
DNA: ATTGCGCATTCCGGATCCGCGATC
modifications: 5mC at 7,11,17; 5-fluoro-C at 20 [5mC at 7,11,17; 5-fluoro-C at 20]
binding signal [6]: 168 relative to A

B18: AMx F12 (ssDNA)
DNA: ATTGCGCATTCCGGATCCGCGATC
modifications: 5mC at 7,11,17; 5-fluoro-C at 12 [5mC at 7,11,17; 5-fluoro-C at 12]
binding signal [6]: 165 relative to A

B19: A' 5mC12 (ssDNA)
DNA: GATCGCGGATCCGGAATGCGCAAT
modifications: 5mC at 12
binding signal [4]: 67 relative to A
